Measurements published in patent publication US10167262B2, “Herbicidal substituted 3-arylpyrazoles” (FMC CORPORATION, priority 2014, dated 2019).
Like-named read-outs stand apart in the source and are kept apart here.

Legend:
Experiment in all cases: Test C pre-/postemergence greenhouse test, plant response rating 0-100;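 on Plant response rating, Blackgrass: 0 is no effect and 100 is complete control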
Format in all cases: in vivo
[1] = system: blackgrass (Alopecurus myosuroides); settings: Alopecurus myosuroides, pre-emergence, Preemergence;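 further: 0 is no effect and 100 is complete control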
Summary of the method: (§1)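 Two application timings: preemergence onto seeded loam/sand soil and postemergence onto plants at the 1–4 leaf stage (2–18 cm) in peat/vermiculite medium. Formulation: non-phytotoxic solvent with surfactant. Read-out: visual control rating, 0–100, at 13–15 days after treatment.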

[2] = system: soybean (Glycine max); settings: Glycine max; for plant injury at 62 g/ha: 62 g ai/ha; for plant injury at 125 g/ha: 125 g ai/ha; for plant injury at 250 g/ha: 250 g ai/ha; for plant injury at 500 g/ha: 500 g ai/ha
Summary of the method: as §1

[3] = system: johnsongrass (Sorghum halepense); settings: Sorghum halepense; for pest or weed control at 62 g/ha: 62 g ai/ha; for pest or weed control at 125 g/ha: 125 g ai/ha; for pest or weed control at 250 g/ha: 250 g ai/ha; for pest or weed control at 500 g/ha: 500 g ai/ha
Summary of the method: as §1

[4] = system: pigweed (Amaranthus retroflexus); settings: Amaranthus retroflexus; for pest or weed control at 62 g/ha: 62 g ai/ha; for pest or weed control at 125 g/ha: 125 g ai/ha; for pest or weed control at 250 g/ha: 250 g ai/ha; for pest or weed control at 500 g/ha: 500 g ai/ha
Summary of the method: as §1

[5] = system: velvetleaf (Abutilon theophrasti); settings: Abutilon theophrasti; for pest or weed control at 62 g/ha: 62 g ai/ha; for pest or weed control at 125 g/ha: 125 g ai/ha; for pest or weed control at 250 g/ha: 250 g ai/ha; for pest or weed control at 500 g/ha: 500 g ai/ha
Summary of the method: as §1

[6] = system: winter wheat (Triticum aestivum); settings: Triticum aestivum; for plant injury at 62 g/ha: 62 g ai/ha; for plant injury at 125 g/ha: 125 g ai/ha; for plant injury at 250 g/ha: 250 g ai/ha; for plant injury at 500 g/ha: 500 g ai/ha
Summary of the method: as §1

[7] = system: large (Lg) crabgrass (Digitaria sanguinalis); settings: Digitaria sanguinalis; for pest or weed control at 62 g/ha: 62 g ai/ha; for pest or weed control at 125 g/ha: 125 g ai/ha; for pest or weed control at 250 g/ha: 250 g ai/ha; for pest or weed control at 500 g/ha: 500 g ai/ha
Summary of the method: as §1

[8] = post-emergence, Postemergence, read-out: Plant response rating (0 to 100), Soybean
[9] = post-emergence, Postemergence, scale 0 to 100
[10] = pre-emergence, Preemergence, read-out: Plant response rating, Soybean
[11] = post-emergence, Postemergence, read-out: Plant response rating (0 to 100), Johnsongrass
[12] = pre-emergence, Preemergence, read-out: Plant response rating, Johnsongrass
[13] = post-emergence, Postemergence, read-out: Plant response rating (0 to 100), Pigweed
[14] = pre-emergence, Preemergence, read-out: Plant response rating, Pigweed
[15] = post-emergence, Postemergence, read-out: Plant response rating (0 to 100), Velvetleaf
[16] = pre-emergence, Preemergence, read-out: Plant response rating, Velvetleaf
[17] = post-emergence, Postemergence, read-out: Plant response rating (0 to 100), Wheat
[18] = pre-emergence, Preemergence, read-out: Plant response rating, Wheat
[19] = post-emergence, Postemergence, read-out: Plant response rating (0 to 100), Crabgrass, Large
[20] = pre-emergence, Preemergence, read-out: Plant response rating, Crabgrass, Large

COCC(=O)n1cc(C(=O)c2ccccc2)c(-c2cc(Cl)cc(Cl)c2)n1 [Compound 16, 1-[4-benzoyl-3-(3,5-dichlorophenyl)-1H-pyrazol-1-yl]-2-methoxyethanone]
pest or weed control at 62 g/ha ([1]; 62 g ai/ha, read-out: Plant response rating, Blackgrass): 0% | pest or weed control at 125 g/ha ([1]; 125 g ai/ha, read-out: Plant response rating, Blackgrass): 0% | pest or weed control at 250 g/ha ([1]; 250 g ai/ha): 0% | pest or weed control at 500 g/ha ([1]; 500 g ai/ha): 0% | plant injury at 62 g/ha [2, 8]: 0% | plant injury at 125 g/ha [2, 8]: 0% | plant injury at 250 g/ha [2, 9]: 0% | plant injury at 500 g/ha [2, 9]: 0% | plant injury at 62 g/ha [2, 10]: 0% | plant injury at 125 g/ha [2, 10]: 0% | plant injury at 250 g/ha ([2]; pre-emergence, Preemergence): 0% | plant injury at 500 g/ha ([2]; pre-emergence, Preemergence): 0% | pest or weed control at 62 g/ha [3, 11]: 0% | pest or weed control at 125 g/ha [3, 11]: 0% | pest or weed control at 250 g/ha [3, 9]: 0% | pest or weed control at 500 g/ha [3, 9]: 0% | pest or weed control at 62 g/ha [3, 12]: 0% | pest or weed control at 125 g/ha [3, 12]: 0% | pest or weed control at 250 g/ha ([3]; pre-emergence, Preemergence): 0% | pest or weed control at 500 g/ha ([3]; pre-emergence, Preemergence): 0% | pest or weed control at 62 g/ha [4, 13]: 85% | pest or weed control at 125 g/ha [4, 13]: 85% | pest or weed control at 250 g/ha [4, 9]: 100% | pest or weed control at 500 g/ha [4, 9]: 100% | pest or weed control at 62 g/ha [4, 14]: 85% | pest or weed control at 125 g/ha [4, 14]: 85% | pest or weed control at 250 g/ha ([4]; pre-emergence, Preemergence): 100% | pest or weed control at 500 g/ha ([4]; pre-emergence, Preemergence): 100% | pest or weed control at 62 g/ha [5, 15]: 85% | pest or weed control at 125 g/ha [5, 15]: 90% | pest or weed control at 250 g/ha [5, 9]: 90% | pest or weed control at 500 g/ha [5, 9]: 90% | pest or weed control at 62 g/ha [5, 16]: 65% | pest or weed control at 125 g/ha [5, 16]: 100% | pest or weed control at 250 g/ha ([5]; pre-emergence, Preemergence): 100% | pest or weed control at 500 g/ha ([5]; pre-emergence, Preemergence): 100% | plant injury at 62 g/ha [6, 17]: 0% | plant injury at 125 g/ha [6, 17]: 0% | plant injury at 250 g/ha [6, 9]: 0% | plant injury at 500 g/ha [6, 9]: 0% | plant injury at 62 g/ha [6, 18]: 0% | plant injury at 125 g/ha [6, 18]: 0% | plant injury at 250 g/ha ([6]; pre-emergence, Preemergence): 0% | plant injury at 500 g/ha ([6]; pre-emergence, Preemergence): 0% | pest or weed control at 62 g/ha [7, 19]: 0% | pest or weed control at 125 g/ha [7, 19]: 0% | pest or weed control at 250 g/ha [7, 9]: 0% | pest or weed control at 500 g/ha [7, 9]: 0% | pest or weed control at 62 g/ha [7, 20]: 0% | pest or weed control at 125 g/ha [7, 20]: 0% | pest or weed control at 250 g/ha ([7]; pre-emergence, Preemergence): 0% | pest or weed control at 500 g/ha ([7]; pre-emergence, Preemergence): 0%
